Data as given in patent US20080318268A1, “Devices and Methods for the Selection of Agents with Efficacy Against Biofilm” (priority 2005, published 2008).
“Also recorded” adds a separate entry of the source. Read-outs that look alike come from different tables or passages of the source.

How the values were obtained:
Type in all cases: cell-based
planktonic Candida cells = test: Planktonic antifungal sensitivity of Candida spp.; settings: all species tested
Experimental: (§1) Three clinical isolates of Candida were used in this study, including one albicans and two non-albicans species. C. albicans ATCC 14053 was obtained from the University Of Calgary, Department Of Biological Sciences. C. tropicalis 99916 and C. glabrata 14326 were obtained from the dialysate of patients undergoing continued ambulatory peritoneal dialysis (CAPD). Aspergillus fumigatus was also tested.
(§2) Biofilm susceptibility testing uses the pegged lid of the assembly, now containing biofilms formed after rocking in the tray for 24 hour. Each peg on the lid was gently washed once in 200 μl of phosphate buffered saline solution (PBSS) in a 96-well microtiter plate (Falcon). The pegged lid was then transferred to another 96 well microtiter plate containing 2 fold dilutions antifungal agent in 200 μl of RPMI 1640 (Sigma, St. Louis, Mo.) or RPMI 1640 containing 1% DMSO (see test drug section). After the pegs were exposed to the drugs for 24 hours, the pegged lid was removed and gently rinsed twice in saline. The pegged lid was then placed on a 96 well plate containing RPMI 1640 recovery medium. The pegs were sonicated for 5 minutes (Candida spp.) or 7 minutes (Aspergillus) in an ultrasonicator to dislodge adherent cells into the recovery medium. Aliquots of 20 μl of the recovery medium were spot plated on SDA (Candida spp) or Rose Bengal Agar (A. fumigatus) to obtain the MBEC. The assembly was also used to determine the minimum inhibitory concentration (MIC) and minimum fungicidal concentration (MFC). The turbidity of the wells that contained the antibiotic and planktonic cells which were shed from the biofilm was measured at 650 nm to obtain the MIC. A 20 μl sample from each well was also spot plated onto Sabouraud Dextrose agar (Candida spp) or Rose Bengal Agar (A. fumigatus) to obtain the MFC.
Minimum Inhibitory Concentrations (MIC) and Minimum Fungicidal Concentrations (MFC) were determined according to the guidelines of the National Committee for Clinical laboratory Standards (NCCLS). Briefly, Candida sp. were maintained on polystyrene spheres at −70° C. until plating. These organisms were streaked onto Sabouraud Dextrose agar (Microbiologie) plates 24 hours before test initiation. The 24 hour colonies were picked from the agar plates and placed in Muellar-Hinton Broth (MHB, Microbiologie) such that the turbidity matched a McFarland standard of 0.5. This was then diluted 1:10 in MHB to obtain a suspension of approximately 1×10^5 to 5×10^5 CFU/ml. A 5 μl volume of this suspension was added to wells containing 200 μl of antifungal agent serially diluted in RPMI 1640 media (Sigma) in a 96 well microtiter plate (Nunclon). A. fumigatus was maintained as a spore suspension at 4° C. until testing. The spore suspension (50 μl) was diluted into 250 ml of TSB, and 5 μl of this suspension was added to each test well containing dilution of antifungal agent as above.
The test wells were then incubated at 37° C. for 24 hours with the antifungal drugs. MICs for Candida were obtained after incubation by reading the turbidity at 650 nm on a microtiter plate reader (Softmax, VWR). A 20 μl aliquot of each well was also plated (SDA) and MFCs obtained from them after 24 hours incubation at 37° C. MFCs were determined for Aspergillus by plating 100 μl from each well onto Rose Bengal Agar, followed by spreading with a sterile glass spreader. The plated organisms were maintained at 25° C. for three days before colony enumeration.
Drugs tested. Itraconazole, Fluconazole, and Ketoconazole were obtained from Janssen Pharmaceuticals in Brussels, Belgium. Nystatin 5-Fluorocytosine, Griseofulvin, Amphotericin B and Polymyxin B were obtained from Sigma Chemical Co, St. Louis, Mo. 5-Fluorocytosine, polymyxin B sulphate and nystatin were dissolved in double-distilled water to a concentration of 10.24 mg/ml and diluted in the test wells through a range of 1024 μg/ml to 0.125 μg/ml in RPMI. […]

[1] = system: Pseudomonas aeruginosa (Ps) biofilm; test: MBEC assay, Ps biofilms (Example 5); settings: number of resistant isolates; 12 isolates from Cystic Fibrosis patients; exposed 24 hours
[2] = system: Pseudomonas aeruginosa (Ps) planktonic bacteria; test: MBEC assay, planktonic Ps isolates (Example 5)
P. aeruginosa biofilm = test: Pseudomonas aeruginosa biofilm assay kit, biofilm MBEC reading of recovery plate (Example 8); settings: challenge 24 hours at 35° C.; recovery 20 to 24 hours; breakpoint concentrations
planktonic P. aeruginosa = test: Pseudomonas aeruginosa biofilm assay kit, planktonic MIC reading of challenge plate (Example 8); settings: challenge 24 hours at 35° C.; breakpoint concentrations
[3] = system: planktonic Staphylococcus aureus; test: Staphylococcus test plate, planktonic forms (Example 9); settings: breakpoint concentrations, number in the label is the concentration tested
[4] = system: Staphylococcus aureus (Staph) planktonic bacteria; test: MBEC assay, planktonic Staph isolates (Example 5); settings: number of resistant isolates; 12 isolates from device associated infections; exposed 24 hours
[5] = system: Staphylococcus aureus biofilm; test: Staphylococcus test plate, biofilm forms (Example 9); settings: breakpoint concentrations; number in the label is the concentration tested
[6] = system: Staphylococcus aureus (Staph) biofilm; test: MBEC assay, Staph biofilms (Example 5); settings: number of resistant isolates; 12 isolates from device associated infections; exposed 24 hours
Candida biofilms = test: Minimum biofilm eradication concentration assay, Candida spp. biofilms; settings: biofilm (sessile) Candida
Experimental: as §1
Biofilm formation and measurement of antimicrobial sensitivity of Candida and Aspergillus biofilms were performed using an assembly of the present invention. The device features a microtiter plate lid with 96 pegs or projections distributed on the lid. Each peg provided the surface for microorganism to adhere, colonize and form a uniform biofilm. The pegs fit precisely into the wells of a standard 96-well microtiter plate. The lid was used in conjunction with a base having special troughs for growing, washing, and incubating fungi. Colonies of Candida sp. were picked from 24 hour cultures on Sabouraud Dextrose agar (SDA) (BBL Microbiological Systems, Cockeysville, Md.) and placed into Mueller-Hinton Broth (MHB) (Difco Laboratories, Detroit Mich.) such that the suspension matched a McFarland standard of 1.0. This suspension was then diluted 1:30 in MHB, and 25 ml were pipetted into the trough chamber of the base. The closed assembly (lid with pegs positioned on the base) was placed on a Hoeffer Red Rocker (VWR, Scientific) set to rock the plates 3.5 cycles per minute in a 37° C. incubator. C. albicans and C. tropicalis were incubated aerobically, while C. glabrata was incubated in 10% CO2. It was determined in preliminary experiments that C. glabrata required 10% CO2 atmosphere for biofilms to form.
as §2
Drugs tested. Itraconazole, Fluconazole, and Ketoconazole were obtained from Janssen Pharmaceuticals in Brussels, Belgium. Nystatin 5-Fluorocytosine, Griseofulvin, Amphotericin B and Polymyxin B were obtained from Sigma Chemical Co, St. Louis, Mo. […]

[7] = number of resistant isolates, 12 isolates from Cystic Fibrosis patients, exposed 24 hours

Molecule	effectiveness in killing planktonic Candida cells (planktonic Candida cells)	Ps resistance to individual antibiotics and antibiotic combinations, Biofilm [1]	Ps resistance to individual antibiotics and antibiotic combinations, Planktonic [2, 7]	Number of P. aeruginosa isolates resistant to individual antibiotics and antibiotic combinations, Biofilm (P. aeruginosa biofilm)	Number of P. aeruginosa isolates resistant to individual antibiotics and antibiotic combinations, Planktonic (planktonic P. aeruginosa)	also measured
Nc1nc(=O)[nH]cc1F [5-fluorocytosine, 5-Fluorocytosine]	effective					
NCC[C@H](O)C(=O)N[C@@H]1C[C@H](N)[C@@H](O[C@H]2O[C@H](CN)[C@@H](O)[C@H](O)[C@H]2O)[C@H](O)[C@H]1O[C@H]1O[C@H](CO)[C@@H](O)[C@H](N)[C@H]1O [AK, amikacin]		11	8	11	8	
C[C@H]1[C@H](NC(=O)/C(=N\OC(C)(C)C(=O)O)c2csc(N)n2)C(=O)N1S(=O)(=O)O [AZTR, aztreonam]					0	Ps resistance to individual antibiotics and antibiotic combinations, Planktonic [2]: 0
CC(C)(O/N=C(\C(=O)N[C@@H]1C(=O)N2C(C(=O)[O-])=C(C[n+]3ccccc3)CS[C@H]12)c1csc(N)n1)C(=O)O [CFTZ, ceftazidime]		12	3	12	3	
Cc1nnc(SCC2=C(C(=O)O)N3C(=O)[C@@H](NC(=O)Cn4cnnn4)[C@H]3SC2)s1 [CFZ, cefazolin]						Number of Staphylococcus aureus isolates resistant to individual antibiotics and antibiotic combinations, Planktonic ([3]; listed as CFZ4): 4; Number of Staphylococcus aureus isolates resistant to individual antibiotics and antibiotic combinations, Planktonic ([3]; listed as CFZ8): 6; Staph resistance to individual antibiotics and antibiotic combinations, Planktonic [4]: 2
O=C(O)c1cn(C2CC2)c2cc(N3CCNCC3)c(F)cc2c1=O [CIPRO, ciprofloxacin]					4	Ps resistance to individual antibiotics and antibiotic combinations, Planktonic [2]: 4; Number of Staphylococcus aureus isolates resistant to individual antibiotics and antibiotic combinations, Planktonic [3]: 7; Staph resistance to individual antibiotics and antibiotic combinations, Planktonic [4]: 10
CCC[C@@H]1C[C@@H](C(=O)N[C@@H]([C@H]2O[C@H](SC)[C@H](O)[C@@H](O)[C@H]2O)[C@H](C)Cl)N(C)C1 [CLIN, clindamycin]						Number of Staphylococcus aureus isolates resistant to individual antibiotics and antibiotic combinations, Planktonic ([3]; listed as CLI1): 8; Number of Staphylococcus aureus isolates resistant to individual antibiotics and antibiotic combinations, Planktonic ([3]; listed as CLI4): 5; Staph resistance to individual antibiotics and antibiotic combinations, Planktonic [4]: 9
Cc1onc(-c2ccccc2Cl)c1C(=O)N[C@@H]1C(=O)N2[C@@H]1SC(C)(C)[C@@H]2C(=O)O [CLOX, cloxacillin]						Number of Staphylococcus aureus isolates resistant to individual antibiotics and antibiotic combinations, Planktonic [3]: 2; Number of Staphylococcus aureus isolates resistant to individual antibiotics and antibiotic combinations, Biofilm [5]: 12; Staph resistance to individual antibiotics and antibiotic combinations, Biofilm [6]: 12; Staph resistance to individual antibiotics and antibiotic combinations, Planktonic [4]: 3
COC1=CC(=O)C[C@@H](C)[C@]12Oc1c(Cl)c(OC)cc(OC)c1C2=O [Griseofulvin]	ineffective					effectiveness against Candida growing as a biofilm (Candida biofilms): ineffective
C[C@@H](O)[C@H]1C(=O)N2C(C(=O)O)=C(SCCN=CN)C[C@H]12 [IMP, imipenem]		12	12	12	12	
NC[C@H]1O[C@H](O[C@H]2[C@H](O)[C@@H](O[C@H]3O[C@H](CO)[C@@H](O)[C@H](N)[C@H]3O)[C@H](N)C[C@@H]2N)[C@H](N)C[C@@H]1O [TB, tobramycin]		12	3	12	3	
CC(=O)N1CCN(c2ccc(OCC3COC(Cn4ccnc4)(c4ccc(Cl)cc4Cl)O3)cc2)CC1 (centres unmarked) [ketoconazole, Ketoconazole]	effective					
C[C@@H]1[C@H](O)[C@@H](C)/C=C/C=C/CC/C=C/C=C/C=C/C=C/C(O[C@H]2O[C@H](C)[C@@H](O)[C@H](N)[C@@H]2O)CC2O[C@](O)(CC(O)C(O)CCC(O)CC(O)CC(O)CC(=O)O[C@H]1C)CC(O)C2C(=O)O (some centres unmarked) [nystatin, Nystatin]	effective					effectiveness against Candida growing as a biofilm (Candida biofilms): effective; also recorded: most effective agents
Colistin [CLO]		12	2	12	2	
Polymyxin B	ineffective					effectiveness against Candida growing as a biofilm (Candida biofilms): ineffective
